Among the data in US20140017330A1, “Activated Nucleoside Analog Conjugates and Methods of Use Thereof” (BOARD OF REGENTS OF THE UNIVERSITY OF NEBRASKA, priority 2011, published 2014) are IC50 and drug release time values, retold here.

pIC50: −log10 of the molar value.

What is called pIC50 is the negative decadic logarithm of the IC50, by convention in mol/L.

Data set [1] concerns cytarabine-resistant human leukemic lymphoblast CEM/araC/8 cells. The experiment in a line: MTT cytotoxicity assay, CEM/araC/8. The class given is cell-based. To be noted: 72-hour treatment. The method, then:
(§1) Human breast carcinoma MCF-7, human hepatocellular carcinoma HepG2, and human prostate adenocarcinoma PC-3 cells were obtained from ATCC (Rockville, Md.). These cells were maintained in Dulbecco's Modified Eagle Medium (DMEM) supplemented with 10% fetal bovine serum (FBS), 1% L-glutamine, and 2% penicillin-streptomycin at 37° C. in a humidified atmosphere containing 5% CO2. […] These cells were maintained in DMEM/Nutrient mixture F-12 (DMEM/F12) with similar supplements and serum as above. […] They were grown in the presence of 2 μM gemcitabine. […] Galmarini (UFR Lyon-Sud, Oullins, France). The cells were grown in the presence of 0.5 μM cytarabine (araC). […]
(§2) Cytotoxicity of the polymeric conjugates was analyzed in different cancer cell lines by a standard MTT assay. […] Samples were incubated in full medium for 72 hours at 37° C., and the metabolic activity of each sample was determined by adding 20 μL of a 5 mg/mL of MTT stock solution in sterile PBS buffer to each well. […] Optical absorbance was measured at 560 nm using a model 680 microplate reader (BioRad, Hercules, Calif.) and cytotoxicity was expressed as a percentage of survived cells relative to nontreated control cells. All samples were analyzed by an average of eight measurements (means±SEM).

The subject of data set [2] is human hepatocellular carcinoma HepG2 cells. The experiment in a line: MTT cytotoxicity assay, HepG2. It is filed as cell-based. The following applies: 72-hour treatment, read-out: IC50 values, Hep G2. The protocol:
as §1, §2

In data set [3] the test system is human prostate adenocarcinoma PC-3 cells. The experiment in a line: MTT cytotoxicity assay, PC-3. The class given is cell-based. The following applies: 72-hour treatment. The protocol: as §1, §2
(Tetrazolium assays rely on reduction of a dye to a coloured formazan, in cell work by metabolically active cells.)

The subject of data set [4] is human breast carcinoma MCF-7 cells. The experiment in a line: MTT cytotoxicity assay, MCF-7. The class given is cell-based. The following applies: MCF7, 72-hour treatment. The protocol: as §1, §2
In data set [5] the test system is human breast carcinoma MDA-MB-231 cells. The experiment in a line: MTT cytotoxicity assay, MDA-MB-231. It is filed as cell-based. To be noted: 72-hour treatment. The method, then:
as §1, §2

Data set [6] relates to gemcitabine-resistant human follicular lymphoma RL7/G cells. The experiment in a line: MTT cytotoxicity assay, RL7/G. To be noted: 72-hour treatment. The class given is cell-based. The method, then:
as §1, §2

For data set [7] the following is noted: comparator from the literature (Mikkola 2004); cited from earlier work.

`Nc1ccn([C@@H]2O[C@H](CO)[C@@H](O)[C@@H]2O)c(=O)n1` [Cytarabine (araC), arabinosylcytosine] gave a pIC50 in data set [1] of 2.91.

Consider `O=c1[nH]c(=O)n([C@H]2C[C@H](O)[C@@H](CO)O2)cc1F` [Floxuridine (FdU), 5-fluoro-2′-deoxyuridine], for which the negative logarithm of the IC50 (pIC50) in data set [2] was 2.66; in data set [3], 5.19; in data set [4], 1.91; in data set [5], 4.85.

`Nc1ccn([C@@H]2O[C@H](CO)[C@@H](O)C2(F)F)c(=O)n1` [Gemcitabine (G), 2,2′-difluorocytidine] had a pIC50 in data set [6] of 1.72. As for `Nc1ncnc2c1ncn2[C@@H]1O[C@H](COP(=O)(O)OP(=O)(O)OP(=O)(O)OP(=O)(O)OC[C@H]2O[C@@H](n3cnc4c(N)ncnc43)[C@H](O)[C@@H]2O)[C@@H](O)[C@H]1O` [diadenosine-P1,P4-tetraphosphate], the drug release time in data set [7] was 3 days.
